From patent US20190275012A9, “SUBSTITUTED THIAZOLO-PYRIDINE COMPOUNDS AS MALT1 INHIBITORS” (Lupin Limited, priority 2016, published 2019)

What was measured:
OCI-Ly-10 cells = test: Anticancer assay (14 days), cell viability by CCK-8; assay type: cell-based; conditions: Homo sapiens, OCI-Ly10, 336 h, 14 days treatment, fresh treatment every 5th day, CCK-8 viability, read-out: Ly-10 (14d) inhibition IC50
Description: OCI-Ly-10 cells (UHN, Canada) seeded in culture media (IMDM+20% FBS) in 96-well plates were treated with various concentrations of the test compounds. Cells were treated for a period of 14 days (13-15 days depending on the confluency of cells) with fresh treatments every 5th day. After the first treatment, for all subsequent treatments, the cells were centrifuged, the spent media was removed and fresh media containing the test compound was added. Cell viability was assessed using CCK-8 kit (Dojindo Laboratories, China) as per manufacturer's instructions. Plates were read in colorimeter and absorbance was detected. (Detection at 450 nm; Background correction at 650 nm). % inhibition was calculated relative to the samples containing media with 0.1% DMSO alone as per the following formula

[1] = tested on: NF-kB transcriptional activity in HEK-293-NF-kB-Luc cell line overexpressing MALT1; test: NF-kB reporter assay (luciferase, MALT1 stably overexpressed); assay type: cell-based; conditions: Homo sapiens, 24 h, HEK-293-NF-kB-Luc cells stably overexpressing MALT1, 24 h treatment, Bright Glo luminescence; read-out: NF-kB inhibition IC50
Method in brief: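 Inhibition of NF-κB activity was expressed relative to 0.1% DMSO wells, from luminescence after 10 min Bright Glo at ambient temperature. Compounds had been applied for 24 h to adhered MALT1-overexpressing HEK-293 NF-κB luciferase reporter cells.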

full length MALT1 enzyme = molecular target: T1, full length MALT1 enzyme (Homo sapiens, UniProt Q9UDY8); test: MALT1 biochemical assay (fluorescence based, Ac-Leu-Arg-Ser-Arg-AMC cleavage); conditions: full length MALT1 protein, 2 h pre-incubation at RT, tetrapeptide substrate Ac-Leu-Arg-Ser-Arg-AMC, read-out: Malt 1 inhibition IC50
T1 construct: a fluorescence based assay with full length MALT1 enzyme
T1 sequence (Q9UDY8 1-824): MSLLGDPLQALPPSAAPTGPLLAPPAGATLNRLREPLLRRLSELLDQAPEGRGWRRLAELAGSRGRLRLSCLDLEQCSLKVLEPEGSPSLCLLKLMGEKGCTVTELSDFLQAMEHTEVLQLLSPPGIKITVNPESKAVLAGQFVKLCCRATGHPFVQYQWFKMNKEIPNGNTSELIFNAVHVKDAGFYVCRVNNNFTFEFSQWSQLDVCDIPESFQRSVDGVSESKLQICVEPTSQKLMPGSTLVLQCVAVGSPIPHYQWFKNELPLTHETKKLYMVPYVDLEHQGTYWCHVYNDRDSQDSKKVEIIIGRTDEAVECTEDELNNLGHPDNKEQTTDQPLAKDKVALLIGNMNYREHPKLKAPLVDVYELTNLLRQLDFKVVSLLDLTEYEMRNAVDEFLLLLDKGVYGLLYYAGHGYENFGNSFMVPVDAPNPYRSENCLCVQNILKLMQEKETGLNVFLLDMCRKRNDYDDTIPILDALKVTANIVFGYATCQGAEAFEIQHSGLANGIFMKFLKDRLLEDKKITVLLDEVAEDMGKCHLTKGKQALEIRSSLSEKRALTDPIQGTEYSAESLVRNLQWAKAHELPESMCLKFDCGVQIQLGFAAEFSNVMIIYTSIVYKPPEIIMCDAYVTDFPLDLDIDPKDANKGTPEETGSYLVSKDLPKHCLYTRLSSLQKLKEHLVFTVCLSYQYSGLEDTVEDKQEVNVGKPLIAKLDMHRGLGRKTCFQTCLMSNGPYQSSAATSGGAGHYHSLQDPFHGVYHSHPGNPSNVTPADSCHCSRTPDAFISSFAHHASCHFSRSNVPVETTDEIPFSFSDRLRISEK
Method in brief: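 Full-length MALT1 (100-300 ng/well) was pre-incubated with compound for 2 h at RT, then 100 μM Ac-LRSR-AMC was added for 4-12 h. Buffer was 50 mM MES, 150 mM NaCl, 0.1% CHAPS, 1 M ammonium citrate, 10 mM DTT, pH 7, with 0.5% DMSO. IC50 was derived from AMC fluorescence (ex 360/em 460 nm).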

Structure (SMILES) | IC50 (OCI-Ly-10 cells) [µM] | IC50 [1] [µM] | IC50 (full length MALT1 enzyme) [µM]
CCOC(C)c1c(NC(=O)Nc2cnc(-n3nccn3)c(Cl)c2)cnc2sc(C)nc12 (racemic) [Compound 164, 1-(5-Chloro-6-(2H-1,2,3-triazol-2-yl)pyridin-3-yl)-3-(7-(1-ethoxyethyl)-2-methylthiazolo[5,4-b]pyridin-6-yl)urea] | 0.101 to 0.25 | 0.001 to 0.1 | –
COCC1CCCN(c2c(NC(=O)Nc3cnc(OC)c(Cl)c3)cnc3sc(C)nc23)C1 (single isomer, unassigned) [Compound 51b, 1-(5-chloro-6-methoxypyridin-3-yl)-3-(7-(3-(methoxymethyl)piperidin-1-yl)-2-methylthiazolo[5,4-b]pyridin-6-yl)urea] | 0.501 to 1.5 | – | –
COc1nc(-n2ccnn2)c(Cl)cc1NC(=O)Nc1cnc2sc(C)nc2c1C(C)OC (single isomer, unassigned) [Compound 91b, 1-(5-Chloro-2-methoxy-6-(1H-1,2,3-triazol-1-yl)pyridin-3-yl)-3-(7-(1-methoxyethyl)-2-methylthiazolo[5,4-b]pyridin-6-yl)urea] | 0.026 to 0.1 | – | –
Cc1nc2c(C3CCCO3)c(NC(=O)Nc3cnc(-n4nccn4)c(Cl)c3)cnc2s1 (single isomer, unassigned) [Compound 136b, 1-(5-Chloro-6-(2H-1,2,3-triazol-2-yl)pyridin-3-yl)-3-(2-methyl-7-(tetrahydrofuran-2-yl)thiazolo[5,4-b]pyridin-6-yl)urea] | 0.101 to 0.25 | 0.001 to 0.1 | –
COC(C)c1c(NC(=O)Nc2ccc(-c3nnco3)c(Cl)c2)cnc2sc(C)nc12 (single isomer, unassigned) [Compound 203b, (S) or (R)-1-(3-Chloro-4-(1,3,4-oxadiazol-2-yl)phenyl)-3-(7-(1-methoxyethyl)-2-methylthiazolo[5,4-b]pyridin-6-yl)urea] | 0.026 to 0.1 | 0.001 to 0.1 | –
COC(C)c1c(NC(=O)Nc2cnc(-n3nccn3)c(C(F)F)c2)cnc2sc(C)nc12 (single isomer, unassigned) [Compound 205b, (S) or (R)-1-(5-(Difluoromethyl)-6-(2H-1,2,3-triazol-2-yl)pyridin-3-yl)-3-(7-(1-methoxyethyl)-2-methylthiazolo[5,4-b]pyridin-6-yl)urea] | 0.101 to 0.25 | 0.101 to 0.5 | –
COC(C)c1c(NC(=O)Nc2cnc(-n3ccnn3)c(C(F)F)c2)cnc2sc(C)nc12 (single isomer, unassigned) [Compound 206b, (S) or (R)-1-(5-(Difluoromethyl)-6-(1H-1,2,3-triazol-1-yl)pyridin-3-yl)-3-(7-(1-methoxyethyl)-2-methylthiazolo[5,4-b]pyridin-6-yl)urea] | 0.101 to 0.25 | 0.001 to 0.1 | –
COC(C)c1c(NC(=O)Nc2ccc(-n3nccn3)c(C#N)c2)cnc2sc(C)nc12 (single isomer, unassigned) [Compound 208b, (S) or (R)-1-(3-Cyano-4-(2H-1,2,3-triazol-2-yl)phenyl)-3-(7-(1-methoxyethyl)-2-methylthiazolo[5,4-b]pyridin-6-yl)urea] | 0.101 to 0.25 | – | –
CCOc1nc(-n2nccn2)c(C(F)(F)F)cc1NC(=O)Nc1cnc2sc(C)nc2c1C(C)OC (single isomer, unassigned) [Compound 221, (S) or (R)-1-(2-ethoxy-6-(2H-1,2,3-triazol-2-yl)-5-(trifluoromethyl)pyridin-3-yl)-3-(7-(1-methoxyethyl)-2-methylthiazolo[5,4-b]pyridin-6-yl)urea] | 0.026 to 0.1 | 0.001 to 0.1 | –
COCCc1c(NC(=O)Nc2cnc(OC)c(Cl)c2)cnc2sc(C)nc12 [Compound 33, 1-(5-Chloro-6-methoxypyridin-3-yl)-3-(7-(2-methoxyethyl)-2-methylthiazolo[5,4-b]pyridin-6-yl)urea] | 0.501 to 1.5 | – | –
COCC(OC)c1c(NC(=O)Nc2cnc(OC)c(Cl)c2)cnc2sc(C)nc12 (stereo not drawn) [Compound 34a, 1-(5-chloro-6-methoxypyridin-3-yl)-3-(7-(1,2-dimethoxyethyl)-2-methylthiazolo[5,4-b]pyridin-6-yl)urea] | 0.101 to 0.25 | 0.101 to 0.5 | –
O=C(Nc1cnc(-n2nccn2)c(Cl)c1)Nc1cnc2scnc2c1C1CC1 [Compound 35, 1-(5-Chloro-6-(2H-1,2,3-triazol-2-yl)pyridin-3-yl)-3-(7-cyclopropylthiazolo[5,4-b]pyridin-6-yl)urea] | 0.026 to 0.1 | 0.001 to 0.1 | –
COCC(CN(C)c1c(NC(=O)Nc2cnc(-n3nccn3)c(Cl)c2)cnc2sc(C)nc12)OC (stereo not drawn) [Compound 43, 1-(5-Chloro-6-(2H-1,2,3-triazol-2-yl)pyridin-3-yl)-3-(7-((2,3-dimethoxypropyl)(methyl)amino)-2-methylthiazolo[5,4-b]pyridin-6-yl)urea] | 0.026 to 0.1 | – | –
COCCN(C)c1c(NC(=O)Nc2cnc(OC)c(Cl)c2)cnc2sc(C)nc12 [Compound 45, 1-(5-Chloro-6-methoxypyridin-3-yl)-3-(7-((2-methoxyethyl)(methyl)amino)-2-methylthiazolo[5,4-b]pyridin-6-yl)urea] | 0.501 to 1.5 | – | –
Cc1nc2c(C3CC3)c(NC(=O)Nc3cnc(-n4ccnn4)c(Cl)c3)cnc2s1 [Compound 61, 1-(5-Chloro-6-(1H-1,2,3-triazol-1-yl)pyridin-3-yl)-3-(7-cyclopropyl-2-methylthiazolo[5,4-b]pyridin-6-yl)urea] | 0.501 to 1.5 | – | –
Cc1nc2c(C(C3CC3)N(C)C)c(NC(=O)Nc3cnc(-n4nccn4)c(C(F)(F)F)c3)cnc2s1 (stereo not drawn) [Compound 76a, 1-(6-(2H-1,2,3-Triazol-2-yl)-5-(trifluoromethyl)pyridin-3-yl)-3-(7-(cyclopropyl(dimethylamino)methyl)-2-methylthiazolo[5,4-b]pyridin-6-yl)urea] | 0.101 to 0.25 | – | –
Cc1ncn(-c2ccc(NC(=O)Nc3cnc4sc(C)nc4c3C3CC3)cc2C#N)n1 [Compound 171, 1-(3-Cyano-4-(3-methyl-1H-1,2,4-triazol-1-yl)phenyl)-3-(7-eyelopropyl-2-methylthiazolo[5,4-b]pyridin-6-yl)urea] | – | 0.101 to 0.5 | 0.051 to 0.1
Cc1nc2c(C3CC3)c(NC(=O)Nc3ccc(-n4ncnc4C)c(C#N)c3)cnc2s1 [Compound 172, 1-(3-Cyano-4-(5-methyl-1H-1,2,4-triazol-1-yl)phenyl)-3-(7-eyelopropyl-2-methylthiazolo[5,4-b]pyridin-6-yl)urea] | – | 0.501 to 1.5 | 0.051 to 0.1
COCc1c(NC(=O)Nc2cnc(-n3nccn3)c(Cl)c2)cnc2sc(C)nc12 [Compound 176, 1-(5-Chloro-6-(2H-1,2,3-triazol-2-yl)pyridin-3-yl)-3-(7-(metdoxymethyl)-2-methylthiazolo[5,4-b]pyridin-6-yl)urea] | – | 0.101 to 0.5 | 0.001 to 0.05
Cc1nc2c(C3(C)CC3)c(NC(=O)Nc3ccc(-n4nccn4)c(Cl)c3)cnc2s1 [Compound 179, 1-(3-Chloro-4-(2H-1,2,3-triazol-2-yl)phenyl)-3-(2-methyl-7-(1-methylcyclopropyl)thiazolo[5,4-b]pyridin-6-yl)urea] | – | 0.001 to 0.1 | 0.001 to 0.05
Cc1nc2c(C(C)C)c(NC(=O)Nc3cnc(-n4nccn4)c(C(F)(F)F)c3)cnc2s1 [Compound 191, 1-(6-(2H-1,2,3-triazol-2-yl)-5-(trifluoromethyl)pyridin-3-yl)-3-(7-isopropyl-2-methylthiazolo[5,4-b]pyridin-6-yl)urea] | – | 0.001 to 0.1 | 0.001 to 0.05
Cc1nc2c(C3CC3)c(NC(=O)Nc3cc(Cl)cnc3OCCN(C)C)cnc2s1 [Compound 195, 1-(5-Chloro-2-(2-(dimethylamino)ethoxy)pyridin-3-yl)-3-(7-cyclopropyl-2-methylthiazolo[5,4-b]pyridin-6-yl)urea] | – | 0.001 to 0.1 | 0.051 to 0.1
